In one assay the target is ACC2 (Homo sapiens (Human), UniProt O00763). The assay can be described thus: Acetyl-CoA carboxylase inhibition activity assay in vitro (ADP-Glo kinase assay), ACC2. Conditions: 1 nM ACC2, 5% DMSO, 25° C. In kind it is biochemical. The method, then:
(§1) The inhibitory action of the compounds against ACC1 or ACC2 was determined by using ADP-Clo™ kinase assay kit from Promega. The ADP-Glo™ Kinase Assay is a luminescent ADP detection assay to measure enzymatic activity by quantifying the amount of ADP produced during an enzyme reaction. The assay is performed in two steps; first, after the enzyme reaction, an equal volume of ADP-Glo™ Reagent is added to terminate the reaction and deplete the remaining ATP. Second, the Kinase Detection Reagent is added to simultaneously convert ADP to ATP and allow the newly synthesized ATP to be measured using a luciferase/luciferin reaction. Luminescence can be correlated to ADP concentrations by using an ATP-to-ADP conversion curve.
(§2) The detailed procedure is as follows. • a. 4.5 μL/well of ACC1/ACC2 working solution (2.22 nM) was added to a 384-well reaction plate (PerkinElmer, 6007290). • b. The compound (10 mM) was diluted with 100% DMSO 500 times to a concentration of 20 μM, the dilute compound solution was diluted 1:3 in succession in a 384-well dilution plate (3657, corning) to gradient concentrations of 20, 6.67, 2.22, 0.74, 0.25, 0.082, 0.027, 0.009, 0.003, 0.001, 0 μM; • c. 0.5 μL/well of the compound solution (prepared in step b) was added to the 384-well reaction plate (prepared in step a), the plate was centrifuged at 1000 rpm and incubated at 25° C. for 15 minutes; • d. 0.5 μL/well of substrate mixture (ATP (10 mM), Acetyl-CoA (2 mM), NaHCO3 (1000 mM)) was transfered into the 384-well reaction plate, the plate was centrifuged at 1000 rpm and incubated at 25° C. for 30 minutes. The compound final gradient concentrations in the reaction system were 1000, 333.3, 111.1, 37.04, 12.35, 4.12, 1.37, 0.46, 0.15, 0.05, 0 nM. The final concentration of DMSO was 5%; the final concentration of ACC1/ACC2 is 1 nM. • e. 10 μL/well of ADP-Glo solution was transfered into the 384-well reaction plate, the plate was centrifuged at 1000 rpm and incubated at 25° C. for 40 minutes. • f. 20 µL/well of kinase detection reagent was transfered into the 384-well reaction plate, the plate was centrifuged at 1000 rpm and incubated at 25° C. for 40 minutes. • g. Relative Light Units (RLU) was read on an Envision multifunction plate reader. The signal intensity represents the level of ACC1/ACC2 kinase activity.
(§3) The ACC1/ACC2 working solution, substrate mixture, ADP-Glo solution and kinase detection reagent used in the assay are all prepared by using 1× kinase reaction buffer [hydroxyethylpiperazineethanesulfonic acid (HEPES, 50 mM), MgCl2 (2 mM), lauryl polyglycol ether (BRIJ-35, 0.01%), potassium citrate (2 mM), bovine serum albumin (BSA, 50 μg/mL), dithiothreitol (DTT, 2 mM)].
(§4) Data for each concentration, as well as the positive and negative controls were averaged, and the standard deviation was calculated. Percent inhibition was calculated by the formula: 100×(average negative control−compound)/(average negative control−average positive control). The IC50 for each compound was calculated by fitting the data with a nonlinear regression equation: Y=Bottom+(Top−Bottom)/(1+10^((Log IC50−X)×HillSlope)), where X is the log of compound concentration and Y is percent inhibition. 0.1 μM ND-630 was as positive control in the assay.
(In general: ADP-Glo turns the ADP formed in a reaction into a luminescent signal.)

A further assay has as its target ACC1 (Homo sapiens (Human), UniProt Q13085). Kind of assay: Acetyl-CoA carboxylase inhibition activity assay in vitro (ADP-Glo kinase assay), ACC1. Conditions: 1 nM ACC1, 5% DMSO, 25° C. In kind it is biochemical. The method, then:
as §1, §2, §3, §4

For 15 molecules, IC50 results are on record in patent US10759812B2, “Thienopyrimidine derivative and use thereof in medicine” (SUNSHINE LAKE PHARMA CO., LTD., priority 2017, dated 2020).

Molecules are shown by their SMILES.

Chain of ACC2 (O00763 whole entry, species assumed): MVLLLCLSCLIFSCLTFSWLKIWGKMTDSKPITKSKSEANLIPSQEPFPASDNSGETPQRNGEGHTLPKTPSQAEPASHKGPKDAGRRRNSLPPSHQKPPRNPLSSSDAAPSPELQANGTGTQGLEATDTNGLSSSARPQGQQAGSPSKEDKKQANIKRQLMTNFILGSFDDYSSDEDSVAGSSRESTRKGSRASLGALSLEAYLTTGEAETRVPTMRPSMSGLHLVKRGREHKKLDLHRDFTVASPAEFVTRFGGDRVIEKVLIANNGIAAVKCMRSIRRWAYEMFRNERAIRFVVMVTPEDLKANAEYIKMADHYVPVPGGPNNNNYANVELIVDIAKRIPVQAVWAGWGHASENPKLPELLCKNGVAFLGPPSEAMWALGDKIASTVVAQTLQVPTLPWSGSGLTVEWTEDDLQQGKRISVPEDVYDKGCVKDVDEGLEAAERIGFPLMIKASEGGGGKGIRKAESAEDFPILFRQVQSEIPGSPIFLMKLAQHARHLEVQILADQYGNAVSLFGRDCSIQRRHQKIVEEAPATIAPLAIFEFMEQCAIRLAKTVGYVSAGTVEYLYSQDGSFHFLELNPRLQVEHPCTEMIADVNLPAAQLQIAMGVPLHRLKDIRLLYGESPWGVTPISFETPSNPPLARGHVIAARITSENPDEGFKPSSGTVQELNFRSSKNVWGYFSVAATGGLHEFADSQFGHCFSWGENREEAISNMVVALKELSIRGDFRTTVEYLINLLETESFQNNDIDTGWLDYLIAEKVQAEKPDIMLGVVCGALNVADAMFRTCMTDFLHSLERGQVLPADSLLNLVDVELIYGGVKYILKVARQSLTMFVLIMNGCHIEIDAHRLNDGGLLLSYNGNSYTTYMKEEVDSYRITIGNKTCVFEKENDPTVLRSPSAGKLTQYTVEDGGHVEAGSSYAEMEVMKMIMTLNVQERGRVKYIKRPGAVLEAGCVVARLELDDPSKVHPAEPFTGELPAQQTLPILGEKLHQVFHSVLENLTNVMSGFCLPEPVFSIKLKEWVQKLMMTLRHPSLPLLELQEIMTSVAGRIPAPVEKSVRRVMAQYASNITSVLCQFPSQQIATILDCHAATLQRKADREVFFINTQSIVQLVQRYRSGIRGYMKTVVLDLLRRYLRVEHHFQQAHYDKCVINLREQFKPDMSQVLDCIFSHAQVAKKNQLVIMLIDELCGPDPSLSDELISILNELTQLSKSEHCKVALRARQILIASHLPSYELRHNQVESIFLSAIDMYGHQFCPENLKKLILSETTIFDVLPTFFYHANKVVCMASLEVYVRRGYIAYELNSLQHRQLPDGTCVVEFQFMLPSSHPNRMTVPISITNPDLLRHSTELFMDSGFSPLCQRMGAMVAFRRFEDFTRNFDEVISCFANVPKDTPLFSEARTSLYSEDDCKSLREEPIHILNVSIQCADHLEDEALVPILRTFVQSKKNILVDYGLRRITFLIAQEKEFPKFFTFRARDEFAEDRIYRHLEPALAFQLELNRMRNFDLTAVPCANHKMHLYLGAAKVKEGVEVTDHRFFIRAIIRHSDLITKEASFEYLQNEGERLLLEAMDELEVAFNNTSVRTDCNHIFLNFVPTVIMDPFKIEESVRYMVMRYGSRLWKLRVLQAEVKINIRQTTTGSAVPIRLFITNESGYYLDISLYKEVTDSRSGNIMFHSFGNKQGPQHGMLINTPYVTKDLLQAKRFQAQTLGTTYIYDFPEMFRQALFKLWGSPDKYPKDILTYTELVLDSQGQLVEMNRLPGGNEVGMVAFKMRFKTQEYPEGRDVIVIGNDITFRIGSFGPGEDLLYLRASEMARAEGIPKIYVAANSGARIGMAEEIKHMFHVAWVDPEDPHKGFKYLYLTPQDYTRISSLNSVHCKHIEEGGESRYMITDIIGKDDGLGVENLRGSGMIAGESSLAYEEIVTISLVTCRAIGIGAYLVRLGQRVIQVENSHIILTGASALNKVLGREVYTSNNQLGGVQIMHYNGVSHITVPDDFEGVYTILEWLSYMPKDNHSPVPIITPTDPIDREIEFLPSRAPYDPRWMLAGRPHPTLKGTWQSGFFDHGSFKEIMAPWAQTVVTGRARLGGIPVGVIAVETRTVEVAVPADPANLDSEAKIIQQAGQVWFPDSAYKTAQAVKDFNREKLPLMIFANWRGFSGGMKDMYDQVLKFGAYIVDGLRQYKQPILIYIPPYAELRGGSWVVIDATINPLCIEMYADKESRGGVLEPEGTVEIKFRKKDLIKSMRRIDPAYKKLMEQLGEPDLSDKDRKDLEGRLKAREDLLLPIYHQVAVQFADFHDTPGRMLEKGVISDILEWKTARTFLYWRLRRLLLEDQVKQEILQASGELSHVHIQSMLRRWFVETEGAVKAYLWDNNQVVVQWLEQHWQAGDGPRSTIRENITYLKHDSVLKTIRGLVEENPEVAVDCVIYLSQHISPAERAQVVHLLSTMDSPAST

Usually IC50 stands for the concentration at which inhibition is half-maximal. Higher therefore signals weaker potency. In the case of `CCC1(O)C[C@H]2C[C@@H](OC(Cn3c(=O)n(C(C)(C)C(=O)O)c(=O)c4c(C)c(-c5ncco5)sc43)c3ccccc3OC)C[C@H]2C1` (stereo partly drawn) [Example 19, 2-[1-[2-[[(3aR,6aS)-5-ethyl-5-hydroxy-2,3,3a,4,6,6a-hexahydro-1H-pentalen-2-yl]oxy]-2-(2-methoxyphenyl)ethyl)-5-methyl-6-oxazol-2-yl-2,4-dioxo-thieno[2,3-d]pyrimid-3-yl]-2-methyl-propanoic acid], the half-maximal inhibitory concentration (IC50) stood at 5.45 nM against ACC2 and 0.88 nM on ACC1. The matching figures for `COc1ccccc1C(Cn1c(=O)n(C(C)(C)C(=O)O)c(=O)c2c(C)c(-c3ncco3)sc21)O[C@@H]1C[C@@H]2CC(O)(C#N)C[C@@H]2C1` (stereo partly drawn) [Example 26, 2-[1-[2-[[(3aR,6aS)-5-cyano-5-hydroxy-2,3,3a,4,6,6a-hexahydro-1H-pentalen-2-yl]oxy]-2-(2-methoxyphenyl)ethyl]-5-methyl-6-oxazol-2-yl-2,4-dioxo-thieno[2,3-d]pyrimid-3-yl]-2-methyl-propanoic acid]: 5.4 nM and 1.43 nM. For `COc1ccccc1C(Cn1c(=O)n(C(C)(C)C(=O)O)c(=O)c2c(C)c(-c3ncco3)sc21)OC1CC2COCC2C1` (centres unmarked) [Example 13, 2-[1-[2-(3,3a,4,5,6,6a-hexahydro-1H-cyclopenteno[c]furan5-oxy)-2-(2-methoxyphenyl)ethyl)-5-methyl-6-oxazol-2-yl-2,4-dioxo-thieno[2,3-d]pyrimid-3-yl]-2-methyl-propanoic acid], the values for the IC50 against ACC2 and against ACC1 were 4.24 nM and 1.76 nM, respectively.

On to `COc1ccccc1C(Cn1c(=O)n(C(C)(C)C(=O)O)c(=O)c2c(C)c(-c3ncco3)sc21)O[C@@H]1C[C@@H]2CC(O)(C(F)(F)F)C[C@@H]2C1` (stereo partly drawn) [Example 18, 2-[1-[2-[[(3aR,6aS)-5-hydroxy-5-(trifluoromethyl)-2,3,3a,4,6,6a-hexahydro-1H-pentalen-2-yl]oxy]-2-(2-methoxyphenyl)ethyl]-5-methyl-6-oxazol-2-yl-2,4-dioxo-thieno[2,3-d]pyrimid-3-yl]-2-methyl-propanoic acid], for which the IC50 on ACC1 is 0.89 nM. As for `COc1ccccc1C(Cn1c(=O)n(C(C)(C)C(=O)O)c(=O)c2c(C)c(-c3ncco3)sc21)O[C@H]1C[C@H]2CC(O)C(O)[C@H]2C1` (stereo partly drawn) [Example 22, 2-[1-[2-[[(2S,3aS,6aR)-4,5-dihydroxy-1,2,3,3a,4,5,6,6a-octahydropentalen-2-yl]oxy]-2-(2-methoxyphenyl)ethyl]-5-methyl-6-oxazol-2-yl-2,4-dioxo-thieno[2,3-d]pyrimid-3-yl]-2-methyl-propanoic acid], the values for the 50% inhibitory concentration (IC50) at ACC2 and against ACC1 were 8.44 nM and 1.55 nM, respectively.

Regarding `COc1ccccc1C(Cn1c(=O)n(C(C)(C)C(=O)O)c(=O)c2c(C)c(-c3ncco3)sc21)O[C@@H]1C[C@@H]2CC(F)(F)C[C@@H]2C1` (stereo partly drawn) [Example 21, 2-[1-[2-[[(3aR,6aS)-5,5-difluoro-2,3,3a,4,6,6a-hexahydro-1H-pentalen-2-yl]oxy]-2-(2-methoxyphenyl)ethyl)-5-methyl-6-oxazol-2-yl-2,4-dioxo-thieno[2,3-d]pyrimid-3-yl]-2-methyl-propanoic acid], the IC50 against ACC2 turned out to be 4.07 nM; on ACC1, 1.43 nM. As for `COc1ccccc1C(Cn1c(=O)n(C(C)(C)C(=O)O)c(=O)c2c(C)c(-c3ncco3)sc21)O[C@@H]1C[C@@H]2C[C@@H](S(C)(=O)=O)C[C@@H]2C1` (stereo partly drawn) [Example 29, 2-[1-[2-[[(3aR,6aS)-5-methylsulfonyl-1,2,3,3a,4,5,6,6a-octahydropentalen-2-yl]oxy]-2-(2-methoxyphenyl)ethyl]-5-methyl-6-oxazol-2-yl-2,4-dioxo-thieno[2,3-d]pyrimid-3-yl]-2-methyl-propanoic acid], the IC50 stood at 2.19 nM at ACC2 and 0.47 nM against ACC1. With `COc1ccccc1C(Cn1c(=O)n(C(C)(C)C(=O)O)c(=O)c2c(C)c(-c3ncco3)sc21)O[C@@H]1C[C@@H]2CC(O)(C3CC3)C[C@@H]2C1` (stereo partly drawn) [Example 23, 2-[1-[2-[[(3aR,6aS)-5-cyclopropyl-5-hydroxy-2,3,3a,4,6,6a-hexahydro-1H-pentalen-2-yl]oxy]-2-(2-methoxyphenyl)ethyl]-5-methyl-6-oxazol-2-yl-2,4-dioxo-thieno[2,3-d]pyrimid-3-yl]-2-methyl-propanoic acid], the IC50 at ACC2 was 1.13 nM; against ACC1 it was 0.67 nM.

Regarding `COc1ccccc1C(Cn1c(=O)n(C(C)(C)C(=O)O)c(=O)c2c(C)c(-c3ncco3)sc21)O[C@@H]1C[C@@H]2CC(O)(CC#N)C[C@@H]2C1` (stereo partly drawn) [Example 27, 2-[1-[2-[[(3aS,6aR)-5-(cyanomethyl)-5-hydroxy-2,3,3a,4,6,6a-hexahydro-1H-pentalen-2-yl]oxy]-2-(2-methoxyphenyl)ethyl]-5-methyl-6-oxazol-2-yl-2,4-dioxo-thieno[2,3-d]pyrimid-3-yl]-2-methyl-propanoic acid], the IC50 at ACC2 came out at 4.8 nM; against ACC1, 1.56 nM. For `COc1ccccc1C(Cn1c(=O)n(C(C)(C)C(=O)O)c(=O)c2c(C)c(-c3ncco3)sc21)O[C@H]1C[C@H]2C[C@@H](O)C[C@H]2C1` (stereo partly drawn) [Example 1, 2-[1-[2-[[(3aS,6aR)-5-hydroxy-1,2,3,3a,4,5,6,6a-octahydropentalen-2-yl]oxy]-2-(2-methoxyphenyl)ethyl]-5-methyl-6-oxazol-2-yl-2,4-dioxo-thieno[2,3-d]pyrimid-3-yl]-2-methyl-propanoic acid], the concentration for half-maximal inhibition (IC50) on ACC1 turned out to be 0.93 nM. Still for that read-out and setting: in the case of `COc1ccccc1C(Cn1c(=O)n(C(C)(C)C(=O)O)c(=O)c2c(C)c(-c3ncco3)sc21)O[C@@H]1C[C@@H]2CC(C)(O)C[C@@H]2C1` (stereo partly drawn) [Example 14, 2-[1-[2-[[(3aR,6aS)-5-hydroxy-5-methyl-2,3,3a,4,6,6a-hexahydro-1H-pentalen-2-yl]oxy]-2-(2-methoxyphenyl)ethyl]-5-methyl-6-oxazol-2-yl-2,4-dioxo-thieno[2,3-d]pyrimid-3-yl]-2-methyl-propanoic acid] it was 1.43 nM. Turning to `COc1ccccc1C(Cn1c(=O)n(C(C)(C)C(=O)O)c(=O)c2c(C)c(-c3ncco3)sc21)O[C@H]1C[C@H]2CC(C#N)C[C@H]2C1` (some centres unmarked) [Example 15, 2-[1-[2-[(5-cyano-1,2,3,3a,4,5,6,6a-octahydropentalen-2-yl)oxy]-2-(2-methoxyphenyl)ethyl]-5-methyl-6-oxazol-2-yl-2,4-dioxo-thieno[2,3-d]pyrimid-3-yl]-2-methyl-propanoic acid], the figures for the IC50 against ACC2 and against ACC1 were 6.53 nM and 1.64 nM, respectively. The corresponding values for `COc1ccccc1C(Cn1c(=O)n(C(C)(C)C(=O)O)c(=O)c2c(C)c(-c3ncco3)sc21)O[C@H]1C[C@H]2CO[C@@H](C1)O2` (some centres unmarked) [Example 32] are 2.74 nM and 1.21 nM. In the case of `COc1ccccc1C(Cn1c(=O)n(C(C)(C)C(=O)O)c(=O)c2c(C)c(-c3ncco3)sc21)O[C@H]1C[C@H]2C[C@H](F)C[C@H]2C1` (stereo partly drawn) [Example 17, 2-[1-[2-[[(3aR,6aS)-5-fluoro-1,2,3,3a,4,5,6,6a-octahydropentalen-2-yl]oxy]-2-(2-methoxyphenyl)ethyl)-5-methyl-6-oxazol-2-yl-2,4-dioxo-thieno[2,3-d]pyrimid-3-yl]-2-methyl-propanoic acid], the half-inhibitory concentration (IC50) against ACC1 is 2.24 nM. As to `COc1ccccc1C(Cn1c(=O)n(C(C)(C)C(=O)O)c(=O)c2c(C)c(-c3ncco3)sc21)OC1CC2CN(S(C)(=O)=O)CC2C1` (centres unmarked) [Example 10, 2-[1-[2-(2-methoxyphenyl)-2-[(2-methylsulfonyl-3,3a,4,5,6,6a-hexahydro-1H-cyclopenteno[c]pyrrole-5-yl)oxy]ethyl]-5-methyl-6-oxazol-2-yl-2,4-dioxo-thieno[2,3-d]pyrimid-3-yl]-2-methyl-propanoic acid], the concentration for half-maximal inhibition (IC50) against ACC2 amounted to 1.76 nM; against ACC1, 0.81 nM.
